Data taken from PMC6591177, “Small Molecule IL-36γ Antagonist as a Novel Therapeutic Approach for Plaque Psoriasis” (Scientific Reports, 2019).
Entries after “also recorded” stand apart in the source; their conditions may differ.

Experiments:
[1] = system: IL-36γ evoked CXCL1 release from Mouse NIH-3T3 cells; assay: IL-36γ evoked CXCL1 release, mouse NIH-3T3 cells; format: cell-based; conditions: human IL-36γ evoked CXCL1 release, ± S.D.
Procedure: The immortalized human keratinocyte cell line HaCaT and mouse fibroblast NIH-3T3 cell line were maintained in culture in DMEM with 10% fetal bovine serum and 1% penicillin/streptomycin added (Sigma). Cells were seeded in 96-well tissue culture plates (Corning) at 25,000 cells per well and allowed to adhere and recover overnight at 37 °C in an incubator. Cells were rinsed with PBS (Sigma) and treated with cytokines diluted in 200 μL/well of the medium (DMEM with 0.5% FBS and 1% penicillin/streptomycin) as indicated. In inhibition mode, the agonist concentration used was at the EC80 for chemokine production and the cells were pre-treated with inhibitors for 30 min prior to adding the agonist. After 24 h of treatment, supernatants were collected and IL-8 and CXCL1[28] levels were assessed using a custom immunoassay (Meso Scale Discovery). EC50/IC50 values were estimated from a four-parameter logistic fit using Prism software (GraphPad).

[2] = molecular target: T1, human IL-36α (Homo sapiens, UniProt Q9UHA7); assay: Thermal shift assay / affinity, human IL-36α; format: binding; conditions: thermal shift assay at 100 μM (Supplementary Fig. 4)
T1 construct: using recombinant truncated proteins
T1 sequence (Q9UHA7 6-158): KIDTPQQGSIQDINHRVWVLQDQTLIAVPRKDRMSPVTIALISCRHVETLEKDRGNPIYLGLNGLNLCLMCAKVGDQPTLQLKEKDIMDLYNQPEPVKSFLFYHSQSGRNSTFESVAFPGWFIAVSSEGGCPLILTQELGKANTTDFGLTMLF
Procedure: Thermal shift assays[30] were performed on a Roche LightCycler 480 instrument using Sypro Orange Dye (Invitrogen). Reactions consisted of 0.5–2 µM purified recombinant protein in PBS, pH 7.4, a 1/500 dilution of the stock Sypro Orange reagent, and 100 µM test compounds, resulting in a final DMSO concentration of 1%. The samples were heated from 20 °C to 95 °C at a rate of 0.25 °C per second.

[3] = molecular target: T2, human IL-36γ (Homo sapiens, UniProt Q9NZH8); assay: Isothermal titration calorimetry; format: binding; conditions: 25 °C, pH 7.5; read-out: KD (ITC)
T2 construct: His6-SUMO-human IL-36γ (18–169); His6-SUMO (N, cleaved yes); made in house; host or cells: E. coli BL21 (DE3)
T2 sequence (Q9NZH8 18-169): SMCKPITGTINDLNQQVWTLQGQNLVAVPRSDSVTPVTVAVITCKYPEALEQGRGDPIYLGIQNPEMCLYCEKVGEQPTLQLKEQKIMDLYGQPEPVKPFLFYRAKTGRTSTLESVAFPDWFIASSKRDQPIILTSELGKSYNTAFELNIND
Procedure: All experiments were carried out on a MicroCal^TM Auto-ITC200 at 25 °C in 50 mM HEPES (pH = 7.5), 150 mM NaCl, 0.5 mM TCEP, 2% DMSO. IL-36γ protein solution was buffer exchanged by gel filtration into the isothermal titration calorimetry (ITC) buffer and diluted to 40 µM. The titrations were conducted using an initial injection of 0.2 µL followed by 19 identical injections of 2 µL of 400 µM compound solution. Thermodynamic parameters were calculated using ∆G = ∆H − T∆S = −RTlnKB, where ∆G, ∆H and ∆S are the changes in free energy, enthalpy and entropy of binding respectively. A single binding site model was employed.

[4] = molecular target: T3, mouse IL-36α (Mus musculus, UniProt Q9JLA2); assay: Cross-reactivity to mouse IL-36α; format: binding
T3 sequence (Q9JLA2 8-160): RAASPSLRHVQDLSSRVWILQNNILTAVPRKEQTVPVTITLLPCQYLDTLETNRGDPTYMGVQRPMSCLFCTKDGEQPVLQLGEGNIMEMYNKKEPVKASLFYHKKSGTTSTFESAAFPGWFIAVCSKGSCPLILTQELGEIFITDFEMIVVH

In the case of `COC(c1ccccc1)(c1ccccc1)[C@H](Oc1nc(C)cc(-c2ccc(C)c(N)c2)n1)C(=O)O` [Compound A-552], the Ki [1] is reported as 0.054 ± 0.01 µM, the “binding / affinity to human IL-36α” value [2] is reported as “do not bind; also recorded: does not show affinity” and the Kd [3] is reported as 0.0676 ± 0.006 µM. The “cross-reactivity to mouse IL-36α” value [4] was “lack of species cross-reactivity”.
